Assay: xn = mol fraction of the nth substance listed
Details: 101 kPa, Liquid; for viscosity: Capillary tube (Ostwald / Ubbelohde) method; for speed of sound: Pulse-echo method; for mass density: Pycnometric method

Cc1ccc(O)cc1 [4-methylphenol] + COc1ccc(C=O)cc1
x2 = 0
Details	mass density [kg/m3]	speed of sound [m/s]	viscosity [mPa·s]
303.15 K	1026.5	1468.4	9.54
308.15 K	1022	1455.8	8.119
313.15 K	1018.1	1443.7	6.741
318.15 K	1013.9	1432.7	5.469

Cc1ccccc1O [2-methylphenol] + COc1ccc(C=O)cc1
x2 = 0
Details	mass density [kg/m3]	speed of sound [m/s]	viscosity [mPa·s]
303.15 K	1036.2	1485.3	7.479
308.15 K	1031	1466.8	5.963
313.15 K	1026	1452.1	4.238
318.15 K	1021.1	1437.1	2.215

COc1ccc(C=O)cc1 [4-methoxybenzaldehyde] + Cc1ccc(O)cc1
Details	mass density [kg/m3]	speed of sound [m/s]	viscosity [mPa·s]
303.15 K, x1 = 0.0882	1032.1	1492	9.142
303.15 K, x1 = 0.1788	1038.5	1511.2	8.618
303.15 K, x1 = 0.2717	1044.6	1532.1	8.086
303.15 K, x1 = 0.3673	1053	1553.5	7.524
303.15 K, x1 = 0.4654	1061.2	1575.9	7.064
303.15 K, x1 = 0.5663	1068.4	1599.1	6.543
303.15 K, x1 = 0.6701	1076.7	1622.7	5.753
303.15 K, x1 = 0.7769	1089.3	1646.6	5.04
303.15 K, x1 = 0.8868	1105.6	1671.3	4.265
303.15 K, x1 = 1	1125.2	1694.3	3.251
308.15 K, x1 = 0.0882	1027.7	1477	7.824
308.15 K, x1 = 0.1788	1033	1496.4	7.419
308.15 K, x1 = 0.2717	1038.6	1516.2	7.002
308.15 K, x1 = 0.3673	1045.9	1536.6	6.568
308.15 K, x1 = 0.4654	1053	1558	6.218
308.15 K, x1 = 0.5663	1060.5	1580.1	5.826
308.15 K, x1 = 0.6701	1066.8	1602.5	5.158
308.15 K, x1 = 0.7769	1077.5	1625.2	4.604
308.15 K, x1 = 0.8868	1093	1648.6	3.965
308.15 K, x1 = 1	1111.6	1670.7	3.131
313.15 K, x1 = 0.0882	1024.2	1462.2	6.529
313.15 K, x1 = 0.1788	1029.7	1479.1	6.242
313.15 K, x1 = 0.2717	1035.9	1496.4	5.913
313.15 K, x1 = 0.3673	1044	1514.2	5.582
313.15 K, x1 = 0.4654	1050.3	1533	5.339
313.15 K, x1 = 0.5663	1057.6	1552.4	5.07
313.15 K, x1 = 0.6701	1065.6	1572	4.541
313.15 K, x1 = 0.7769	1076.5	1591.7	4.099
313.15 K, x1 = 0.8868	1091.7	1612	3.609
313.15 K, x1 = 1	1109.5	1631.3	2.961
318.15 K, x1 = 0.0882	1020	1445.1	5.316
318.15 K, x1 = 0.1788	1027.2	1456.5	5.115
318.15 K, x1 = 0.2717	1033.9	1467.9	4.87
318.15 K, x1 = 0.3673	1042.1	1479.6	4.616
318.15 K, x1 = 0.4654	1048.9	1492.3	4.431
318.15 K, x1 = 0.5663	1055.4	1505.4	4.259
318.15 K, x1 = 0.6701	1063	1518.5	3.861
318.15 K, x1 = 0.7769	1073.7	1531.2	3.523
318.15 K, x1 = 0.8868	1088.9	1544.7	3.163
318.15 K, x1 = 1	1104.7	1557	2.682

Cc1cccc(O)c1 [3-methylphenol] + COc1ccc(C=O)cc1
x2 = 0
Details	mass density [kg/m3]	speed of sound [m/s]	viscosity [mPa·s]
303.15 K	1025.8	1464.2	8.929
308.15 K	1021.5	1449.3	7.412
313.15 K	1017	1436.3	6.116
318.15 K	1013.5	1424.2	5.019

COc1ccc(C=O)cc1 [4-methoxybenzaldehyde] + Cc1cccc(O)c1
Details	mass density [kg/m3]	speed of sound [m/s]	viscosity [mPa·s]
303.15 K, x1 = 0.0883	1031.6	1487.6	8.513
303.15 K, x1 = 0.1789	1037.8	1507.8	8.028
303.15 K, x1 = 0.2719	1044	1528.6	7.569
303.15 K, x1 = 0.3674	1052.6	1550.3	7.051
303.15 K, x1 = 0.4656	1060.7	1572.5	6.528
303.15 K, x1 = 0.5665	1068	1595.6	5.969
303.15 K, x1 = 0.6703	1076.4	1619.1	5.331
303.15 K, x1 = 0.777	1088	1643.4	4.593
303.15 K, x1 = 0.8869	1104.5	1668.4	3.93
303.15 K, x1 = 1	1125.2	1694.3	3.251
308.15 K, x1 = 0.0883	1026.7	1471.4	7.108
308.15 K, x1 = 0.1789	1032.4	1490.9	6.747
308.15 K, x1 = 0.2719	1038	1511	6.421
308.15 K, x1 = 0.3674	1045.4	1532.1	6.046
308.15 K, x1 = 0.4656	1052.3	1553.4	5.659
308.15 K, x1 = 0.5665	1060	1575.6	5.237
308.15 K, x1 = 0.6703	1066.1	1598.2	4.741
308.15 K, x1 = 0.777	1077.2	1621.6	4.151
308.15 K, x1 = 0.8869	1092.6	1645.7	3.648
308.15 K, x1 = 1	1111.6	1670.7	3.131
313.15 K, x1 = 0.0883	1022.8	1455.7	5.894
313.15 K, x1 = 0.1789	1028.4	1473.1	5.629
313.15 K, x1 = 0.2719	1034.8	1490.7	5.393
313.15 K, x1 = 0.3674	1042.8	1509.2	5.13
313.15 K, x1 = 0.4656	1049.1	1528.1	4.858
313.15 K, x1 = 0.5665	1056.8	1547.6	4.555
313.15 K, x1 = 0.6703	1064.4	1567.4	4.181
313.15 K, x1 = 0.777	1075.1	1588.1	3.724
313.15 K, x1 = 0.8869	1090.9	1609.3	3.34
313.15 K, x1 = 1	1109.5	1631.3	2.961
318.15 K, x1 = 0.0883	1019.2	1437.7	4.849
318.15 K, x1 = 0.1789	1026.5	1449.6	4.655
318.15 K, x1 = 0.2719	1033.4	1461.5	4.47
318.15 K, x1 = 0.3674	1041.6	1474.1	4.272
318.15 K, x1 = 0.4656	1048.2	1487	4.085
318.15 K, x1 = 0.5665	1055.2	1500.1	3.868
318.15 K, x1 = 0.6703	1062.5	1513.5	3.586
318.15 K, x1 = 0.777	1073.3	1527.5	3.236
318.15 K, x1 = 0.8869	1088.4	1542	2.949
318.15 K, x1 = 1	1104.7	1557	2.682
